Test results as given in patent publication US8658677B2, “Pyridyl-2-methylamino compounds, compositions and uses thereof” (Aria Neurosciences Inc., priority 2011, dated 2014).
pEC50: −log10 of the molar value. Entries after “also recorded” stand apart in the source; their conditions may differ.

Experiments:
Aβ40 [1] = molecular target: T1, Aβ40 (Homo sapiens, UniProt P05067); test: Thioflavin-T fibrillization assay; format: biochemical
T1 construct: host or cells: chemical solid-phase peptide synthesis (no expression host)
T1 sequence (P05067 672-711): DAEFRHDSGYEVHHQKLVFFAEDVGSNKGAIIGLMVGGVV
Text: Synthetic Aβ 1-40 peptide (sequence: […]) was synthesized at the W.M. Keck Foundation Facility (Yale University, New Haven, Conn.) by solid-phase technique on a p-methyl-benzhydrylamine resin, using a Biosearch SAM 2 synthesizer and purified by high performance liquid chromatography (HPLC) with the use of a reverse-phase support medium (Delta-Bondapak) on a 0.78×30 cm column with a 0-66% linear gradient of acetonitrile in 0.1% (v/v) trifluroacetic acid, as previously described. The peptide content of the eluate was monitored by measurement of its absorption at 214 nm. To verify the sequence and purity of the peptide, linear, time-of-flight mass spectrometry was performed at the Skirball Institute at New York University. For aggregation studies the peptide was diluted in 1,1,1,3,3,3-hexafluoro-2-propanol (HFIP; Sigma St. Loius, Mo.) at a concentration of 10 mM/mL, aliquoted and lyophilized. HFIP treatment renders peptides monomeric with minimal β-sheet content. Lyophilized peptides were stored at −80° C. and resuspended immediately prior to each experiment in the appropriate diluent.
The effect of compounds of the present invention on aggregation of Aβ 1-40 peptide was tested using a Thioflavin-T assay according to previously published methods. Aggregation of Aβ 1-40 incubated alone was measured for comparison. Aβ 1-40 was HFIP treated (as described above) and reconstituted in 100 mM Tris buffer (pH 7.4) to obtain a 100 μmol/L concentration. Stock of investigational compounds (50 mmol/L stock diluted in DMSO) was added to Aβ 1-40 to achieve of a concentration 10 or 100 μmol/L of investigational compound in 100 μmol/L of Aβ 1-40. All incubations were performed over a period of 7 days at 37° C. and the incubation mixture was slowly mixed for 6 hours every 24 h. At the conclusion of the experiment samples containing 15 μg of Aβ 1-40 with and without investigational compounds were added to 1 mL of 50 mM glycine, pH 9.2 and 2 μM of Thioflavin-T (Sigma Chemical, Co.; St. Louis, Mo.). Fluorescence was measured at an excitation of 435 nm and an emission of 485 nm in a Perkin-Elmer LS-50B fluorescence spectrophotometer (Perkin Elmer Instruments, Shelton, Conn.). A time scan of fluorescence was performed and three values after the decay reached a plateau (280, 290, 300 seconds) were averaged. The background fluorescence of 40 μL of Tris buffer added to 2 μM/L of Thioflavin-T solution was subtracted. Samples were run in duplicate. Differences in amount of fibrils formed in the presence of investigational compounds were evaluated by means of one-way ANOVA followed by a Dunnet post-hoc test using Statistica (version 6.1, StatSoft Inc., OK).
(§1) […] monomerized synthetic Aβ40 was incubated in 0.1M Tris pH 7.0, T=37° C. for 8 days in the presence of 0-100 μM concentration of compounds. […] An arrow indicates Aβ monomers clustered in ill developed protofibril. (C) Oligomerization assay. ARN4261 and ARN4224 reduced the amount of Aβ oligomers by 78% and 74%, respectively p<0.001. A compound 69b (GKLVFNmgA) was used as a positive control. 69b is homologous to Aβ sequence 17-21 and contains N-methyl glycine (Nmg), which renders it capable of anti-fibrillization and anti-oligomerization effect. (D) Principle of oligomerization assay. 100 μM Aβ40 was aggregated alone or with the addition of 10 μM of tested compounds [1:10 compound: Ab ratio] for 24 h in conditions promoting oligomers assembly, i.e., DMEM/F-12 medium+0.2% SDS, T=4° C. Prior to SDS-PAGE in non-reducing conditions samples were treated with glutaraldehyde. A strong smear of Aβ oligomers is seen between 37 and 70 KDa markers (arrows) in lane 2, and a dense band below the 25 KDa marker reflects Aβ monomers non-dissociated by 10% polyacrylamide gel. No oligomers above 37 KDa marker are seen in lane 1 containing only Aβ monomers run as a control. […] (E) TEM of Aβ oligomers. […] Yellow arrowhead indicates smaller oligomers.

Aβ40 [2] = molecular target: T1, Aβ40; test: Oligomerization assay; format: biochemical; details: 100 μM Aβ40, 10 μM compound, 24 h; for amount of oligomers on SDS-PAGE: lanes 3-5
Procedure: as §1

[3] = tested on: SK-N-SH human neuroblastoma cells; test: Toxicity by MTT cell viability and LDH release assays; format: cell-based; details: 100 μM
Procedure: The effect of 0.01-100 μmol/L concentrations of investigational compounds was tested on the viability of the N2a murine neuroblastoma cell line (American Type Culture Collection, Manassas, Va.). N2a cells were grown in Eagle's minimal essential medium with the addition of 10% fetal bovine serum, streptomycin and gentomycin (Sigma, St. Louis, Mo.), harvested with 2% trypsin and plated at 10,000 cells/100 μL per well in flatbottom, 96-well microtiter plates. The cells were allowed to attach to the plate overnight in an incubator (37° C., 5% CO2) and in the following morning stocks of investigational compounds (50 mmol/L stock diluted in DMSO) were added to cells to achieve the final concentration 0.01-100 μmol/L. Adequate amounts of DMSO (Dimethyl sulfoxide, Sigma, St. Louis, Mo.) were added to control cells. Cells were grown in the presence of investigational compounds for 48 h and then their viability was assessed using a metabolic assay, which is based on cleavage of the yellow tetrazolium salt (MTT) to purple formazan crystals by viable cells. The MTT assay (Roche Molecular Biochemicals, Indianapolis, Ind.) was performed according to the manufacturer's instructions. The results from cell culture neurotoxicity studies were evaluated by one-way analysis of variance, followed by a Dunnett's test as a post hoc analysis.
As shown in FIG. 2 (MTT assay), the compounds were tested for toxicity in SK-N-SH human neuroblastoma cells using MTT cell viability and LDH release (membrane integrity) assays.

APP [4] = test: APP, C99, C83 and sAPP levels in 751APPSW CHO cells (immunoblot, immunostaining); format: cell-based, human; details: 751APPSW CHO clone
APP [5] = test: Acute treatment experiment: brain soluble Aβ40, APP, C99 and C83; format: in vivo, mice; details: five days ip, ARN2966 50 mg/kg/day, Compound E 3 mg/kg/day
Procedure: Furthermore, we conducted an acute treatment experiment where six months old female APPSW/PS1dE9 mice (n=3/group) were treated for five days with ARN2966 (50 mg/kg/day), Compound E (3 mg/kg/day) or Vehicle injected intraperitoneally. Mice were killed three hours after the last injections. The level of soluble Aβ40 was measured in the brain aliquots following diethylamine (DEA) extraction. It was lower in ARN2966 and Compound E treated groups by 39% (p<0.05) and 60% (p<0.05) comparing to vehicle treated mice, respectively (p<0.05; FIG. 6E).
FIGS. 6.(A, B) ARN2966 treatment reduces load of Aβ plaques (n=10 ARN2966, n=15 Vehicle). (B) Representative photomicrograph of Th-S stained brain sections from vehicle and ARN2966 treated 10 month old, female APPSW/PS1dE9reveal a difference in the load of Aβ plaques. […] (D) Reduced Aβ40 and Aβ42 levels in FA extracted brain homogenate, which represent the total brain content of Aβ peptides in ARN2966 treated animals (ELISA). (E) Reduced soluble Aβ40 level in DEA extracted brain homogenate, of ARN2966 and Compound E treated mice (ELISA). […] Aβ concentrations in (C) (D) and (E) are given per gram of wet brain. All values are given as mean±SEM. Statistical analysis was done using two-tailed unpaired t-test, following confirmation of normal distribution of data using Shapiro-Wilk test.

COc1ccc(/C=N/Nc2nc3ccccc3n2C)cc1O [ARN4224]
pEC50 (Aβ40 [1]; 100 μM HFIP monomerized synthetic Aβ40, 0.1M Tris pH 7.0, 37° C., 8 days, 0-100 μM compound, read-out: EC50 of fibril reduction): 4.36
Emax (Aβ40 [1]; pH 7, read-out: EMAX (% of maximal fibril reduction)): 55%
reduction of the amount of Aβ oligomers (Aβ40 [2]; DMEM/F-12 + 0.2% SDS, 4° C.): 74%
amount of oligomers on SDS-PAGE (Aβ40 [2]): reduced amount of oligomers
toxicity in both MTT and LDH release assays [3]: showed toxicity

C[C@H](NC(=O)Cc1cc(F)cc(F)c1)C(=O)N[C@H](C(=O)OC(C)(C)C)c1ccccc1 [Compound D, N-[N-(3,5-difluorophenacetyl)-L-alanyl]-S-phenylglycine t-butyl ester, reference compound]
level of APP FL, C99 and C83 in cell lysates (APP [4]): some accumulation of APP FL, and substantial accumulation of C99 and C83; also recorded: modestly increased the APP FL level and substantially increased levels of C83 and C99

C[C@H](NC(=O)Cc1cc(F)cc(F)c1)C(=O)N[C@H]1N=C(c2ccccc2)c2ccccc2N(C)C1=O [Compound E, (S,S)-2-[2-(3,5-difluorophenyl)-acetylamino]-N-(1-methyl-2-oxo-5-phenyl-2,3-dihydro-1H-benzo[e][1,4]diazepin-3-yl)-propionamide, reference compound]
APP, C99 and C83 signal in brain homogenate (western immunoblotting) (APP [5]): modest increase in C99 and C83 signal
lowering of soluble Aβ40 (DEA extraction) in brain vs vehicle (APP [5]; killed three hours after last injection): 60%
level of APP FL, C99 and C83 in cell lysates (APP [4]): some accumulation of APP FL, and substantial accumulation of C99 and C83; also recorded: modestly increased the APP FL level and substantially increased levels of C83 and C99
sAPP (sAPPα and total sAPP stub) in conditioned media (APP [4]): increased level of sAPP stubs

GKLVFNmgA [69b, reference compound]
amount of oligomers on SDS-PAGE (Aβ40 [2]): reduced amount of oligomers
